Data published in patent publication US20220054493A1, “INHIBITORS OF NGAL PROTEIN” (INSERM (INSTITUT NATIONAL DE LA SANTÉ ET DE LA RECHERCHE …, priority 2019, published 2022).

Key:
[1] = tested on: Myocardial Infarction Model; assay: Cardiac function (echocardiography, LV hemodynamics) in the myocardial infarction model; type: in vivo, mice; conditions: MI model, 100 mg/kg/day in food admix, three months
Procedure: 8-12 weeks old mice (WT C57B16 for GP1 compound experiments) or 8-12 weeks old mice with genetic inactivation of lcn2 (as described in Martinez-martinez et al., Hypertension 2017, December; 70(6):1148-1156) have been used. LV diastolic and systolic diameters were measured in anesthetized (isofluorane 1.5%) mice, according to the American Society of Echocardiography's leading-edge method (using Vivid 7 echograph a 14 Mhz probe). In addition, LV outflow velocity was measured by pulsed waves, and CO was calculated as follows: CO=aortic VTI×[πx·(LV outflow diameter/2)^2]×heart rate, where VTI is velocity-time integral.
LV hemodynamic was assessed as described previously.
Mice were anesthetized (chloral 320 mg·kg−1, IP) and the carotid artery cannulated with a pressure-volume catheter (SPR839, Millar-Instruments, USA) and the catheter was advanced into the LV. Pressure-volume loops were obtained at baseline and during loading by gently occluding the abdominal aorta. LV end-systolic and end-diastolic pressures, dP/dtmax/min, LV relaxation constant tau and were measured/calculated with IOX software (EMKA, France).

[2] = tested on: Myocardial Infarction Model; assay: Cardiac fibrosis and collagen immunostaining in the myocardial infarction model; type: in vivo, mice; conditions: MI model, 100 mg/kg/day in food admix, three months
Excerpt: After assessment of cardiac hemodynamics, the heart was removed, and the atria and the ventricles were separated and weighed individually. A section of the left ventricle was immersed in Bouin fixative solution. After fixation, the sections were dehydrated and embedded in paraffin. From these sections, […] histologic slices were obtained and were stained with Sirius Red. For the measurement of cardiac collagen density, slides were examined and photographed under a light microscope (Zeiss) at 40× magnification. Collagen content was calculated as percentage of collagen area to total area of the image. Perivascular collagen was excluded from the analysis.
Frozen mid-LV sections are thawed at room temperature (30 min), immersed in acetone, rinsed in PBS (1×) and immersed in BSA (10 min each). Slides are then incubated with primary rabbit anti-human collagen-I Ab (Abcam ab 34710) (dilution 1/1000) and primary goat anti-human collagen-III Ab (Rnd NBP1 26547) (dilution 1/500) for 1 hour. Thereafter, slides are rinsed three times in PBS (1×) before being incubated with secondary antibodies donkey […] coupled with FITC (Jackson immunosearch 715-095-151) and donkey anti-goat coupled with Cy3 (Interchim A50-201D3) (dilution 1/400). After three rinses in PBS (1×), slides are mounted with a cover slip on a vecatshield+DAPI medium (Vector Laboratories). A minimum of 8/slide microscopic photographs (×20) were taken from Axiocam-Z1 (Zeiss) fluorescence microscope and analyzed with Image Pro-plus Software. Results are shown as mean±esm.

[3] = tested on: aldosterone-induced profibrotic marker synthesis; assay: Aldosterone-induced profibrotic marker synthesis in human cardiac fibroblasts; type: cell-based; conditions: FIGS. 1 and 2 panel D
Procedure: Cell Culture Human cardiac fibroblasts (primary culture) were obtained from Promocell and maintained in medium (Fibroblast Media 3). Cells were cultured according to the manufacturer's instructions and used between passages 5 and 7. Cells were stimulated with aldosterone (10^-8 M, Sigma) or recombinant hNGAL (500 ng/mL, R&D Systems) for 24 h for protein analysis. Mouse kidney fibroblasts (MKF), were isolated from Wild Type (WT) mice. Briefly, mice 7 to 8 weeks were sacrificed by cervical dislocation and kidneys were cleaned and rinsed in cold DPBS (Dulbecco's Phosphate-Buffered Saline). […]
Total protein aliquots of 20 μg were prepared from cardiac homogenates and electrophoresed on SDS polyacrylamide gels and transferred to Hybond-c Extra nitrocellulose membranes (Amersham Biosciences). […] After densitometric analyses, optical density values were expressed as arbitrary units. Results are expressed as an n-fold increase over the values of the control group in densitometric arbitrary units.
NGAL, IL6 and collagen type I concentrations were measured in cardiac tissue and cell supernatants, respectively, by ELISA according to the manufacturer's instructions (R&D Systems).
The inhibitory activity of the compounds was evaluated on the NGAL-induced IL6 secretion (NGAL 10 ng/ml) in human cardiac fibroblasts. […]

CC(=O)c1cccc(S(=O)(=O)NCc2ccccc2-n2cccn2)c1 [GPZ614741]
fractional shortening (LV Frac. Short.) ([1]; FIG. 7 panel A): significant increase
stroke volume ([1]; FIG. 7 panel D): increased
cardiac output ([1]; FIG. 7 panel E): increased
LV diastolic diameter (LV Diast. Diam.) ([1]; FIG. 7 panels B-C): slight although statistical non-significant decrease
LV systolic diameter (LV Syst. Diam.) ([1]; FIG. 7 panels B-C): slight although statistical non-significant decrease
LV end-systolic pressure (LVESP) ([1]; FIG. 8 panel A): not modified
LV dP/dtmax ([1]; FIG. 8 panel B): significant increase
LV end-diastolic pressure (LVEDP) ([1]; FIG. 8 panel C): tended to be reduced
LV dP/dtmin ([1]; FIG. 8 panel D): increased
LV relaxation constant Tau ([1]; FIG. 8 panel E): decreased
LV interstitial collagen density ([2]; FIG. 9 panel A): significant decrease
Col I immunostaining ([2]; FIG. 9 panel B): decrease
Col III immunostaining ([2]; FIG. 9 panel C): decrease
aldosterone-induced profibrotic marker (Col1, CT-1, or IL6) synthesis [3]: inhibited
